The values below come from PMC10945332, “Precision peptide theranostics: developing N- to C-terminus optimized theranostics targeting cholecystokinin-2 receptor” (Theranostics, 2024).

SMILES strings stand for the structures. Where two headings read alike, the source gives them in different places. Where a SMILES comes first, the peptide text is derived from it. [ ]: non-standard residue; d: D form. The star is where a group is joined. DOTA = O=C(O)CN1CCN(CC(=O)O)CCN(CC(=O)*)CCN(CC(=O)O)CC1; NMe1Nal = CN[C@@H](Cc1cccc2ccccc12)C(=O)O; NMeNle = CCCC[C@H](NC)C(=O)O; Sar = CNCC(=O)O

The logD is lipophilicity at a set pH, counting ionised and neutral species. Broadly, the tissue uptake is the percentage of the injected dose found per gram of tissue. Higher therefore signals high uptake.

The subject of one data set is AR42J xenografts. As to conditions: AR42J xenografts; [68Ga]Ga labeled; 1 hour post-injection; cited from earlier work.
Data set [1] concerns A431-CCK2R tumors. As to conditions: A431-CCK2R/NSG mouse model; 1 hour post-injection; data shown for [177Lu]Lu-CP04; cited from earlier work.
Another data set has as its target T1, human CCK2R (Homo sapiens, UniProt P32239).
T1 construct: stably transfected to over-express the human full-length CCK2R (A431-CCK2R); expressed in transfected cells
T1 sequence (P32239 1-447): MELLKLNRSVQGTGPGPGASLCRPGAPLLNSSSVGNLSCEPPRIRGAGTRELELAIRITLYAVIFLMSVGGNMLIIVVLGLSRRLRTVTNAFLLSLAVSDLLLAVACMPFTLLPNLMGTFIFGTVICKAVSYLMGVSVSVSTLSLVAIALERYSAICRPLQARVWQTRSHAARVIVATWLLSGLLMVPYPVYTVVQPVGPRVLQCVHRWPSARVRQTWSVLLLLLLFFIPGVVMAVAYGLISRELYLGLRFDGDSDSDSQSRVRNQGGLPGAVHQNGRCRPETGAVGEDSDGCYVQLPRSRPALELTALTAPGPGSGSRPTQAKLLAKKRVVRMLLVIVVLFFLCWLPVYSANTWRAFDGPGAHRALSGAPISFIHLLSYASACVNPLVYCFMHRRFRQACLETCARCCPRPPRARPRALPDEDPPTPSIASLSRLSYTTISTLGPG
Description: Competitive binding against [177Lu]Lu-DOTA-CP04 in A431-CCK2R cells. On the procedure: Materials and Methods: Biology […]
In Vitro CCK2R-Ligand Competitive Binding Assays
All CCK2R binding experiments were conducted using A431 (human epidermoid carcinoma) […]
cells stably transfected to over-express the human full-length CCK2R (A431-CCK2R) (gifted […]
by Dr. Elisabeth von Guggenberg, Medizinische Universität Innsbruck).[41] As a negative […]
control, A431 cells stably transfected with an empty vector were analysed simultaneously […]
(A431-EV). All A431 cells were maintained in DMEM (Gibco, Australia) media supplemented […]
with 10% foetal calf serum and 250 µg/mL G418 as described previously.[32]
The affinity of all peptides for the CCK2R was evaluated using competitive binding assays […]
Briefly, 48 hours before the experiment […]
cells were plated at a density of 300,000 cells per well in 12 well plates. On the day of the […]
experiment, linear peptides were diluted in DMEM supplemented with 1% foetal calf serum to […]
DOTA-CP04 was added to each dilution. Cells were washed twice in ice-cold binding buffer […]
(DMEM supplemented with 1% foetal calf serum) and resuspended in 1 mL of the pre-prepared […]
peptide mix before being incubated at room temperature for 1 hour. Post-incubation the media […]
was removed and kept for analysis (unbound fraction) and the cells were washed twice in ice- […]
cold PBS which was pooled with the unbound fraction. Finally, 1 M NaOH (150µL) was added […]
to the wells and allowed to incubate for 5 min before lysates were collected (bound fraction).
A small volume of lysate was kept aside to determine protein concentration using the Pierce® BCA protein assay kit (Thermo Fisher, Australia). All samples were analysed using the Perkin […]
normalised according to protein concentration. Half maximal inhibitory concentration (IC50) was determined using nonlinear regression calculated using Gr aphPad Prism Software (GraphPad Software, California, USA). […]

Another data set deals with CCK2R. The arrangement: method as in PMID 33826325. As to conditions: peptide with gallium coordinated DOTA at the N-terminus; previously assessed; read-out: affinity for CCK2R; cited from earlier work.
Data set [2] is classed as in vitro ADME, mouse.
Data set [3] concerns A431-CCK2R tumors. Description: in vivo. As to conditions: female, NSG, mouse, iv, 1 h.
A further data set is described as follows: in vivo. As to conditions: female, NSG, mouse, iv, total radioactivity.
Data set [4] is classed as physicochemical.
For data set [5] the following is noted: mouse, in vivo.

As to `CSCC[C@H](NC(=O)[C@H](Cc1c[nH]c2ccccc12)NC(=O)CNC(=O)[C@H](Cc1ccc(O)cc1)NC(=O)[C@H](C)NC(=O)[C@@H](CCC(=O)O)NC(=O)[C@@H](CCC(=O)O)NC(=O)[C@@H](CCC(=O)O)NC(=O)[C@@H](CCC(=O)O)NC(=O)[C@@H](CCC(=O)O)NC(=O)[C@H](N)CCC(=O)O)C(=O)N[C@@H](CC(=O)O)C(=O)N[C@@H](Cc1ccccc1)C(N)=O` [CP04, reference compound], the results for the Tumor uptake in the data set on AR42J xenografts and in the data set on A431-CCK2R tumors [1] were 5.5 ± 0.8 [34] % ID/g and 2.5 ± 0.3 [62] % ID/g, respectively. Also, the values for the IC50 at human CCK2R and in the data set with CCK2R were 2.33 nM and 0.76 nM, respectively. Also, at human CCK2R (linear peptide vs its Ga-DOTA form), the “fold decrease in affinity for CCK2R without gallium coordinated DOTA at the N-terminus” value was “greater than 3 fold”.
For `CCCC[C@@H](C(=O)N[C@@H](CC(=O)O)C(=O)N(C)[C@@H](Cc1cccc2ccccc12)C(N)=O)N(C)C(=O)[C@H](Cc1c[nH]c2ccccc12)NC(=O)CN(C)C(=O)[C@H](Cc1ccc(O)cc1)NC(=O)[C@H](C)NC(=O)[C@@H](CCC(=O)O)NC(=O)[C@@H](CCC(=O)O)NC(=O)[C@@H](CCC(=O)O)NC(=O)[C@@H](C)NC(=O)[C@@H](CCC(=O)O)NC(=O)[C@@H](CCC(=O)O)NC(=O)CN1CCN(CC(=O)O)CCN(CC(=O)O)CCN(CC(=O)O)CC1` [[^68Ga]Ga-DOTA-GA13, metal not drawn] ({DOTA}-[dE][dE][dA][dE][dE][dE]AY[Sar]W[NMeNle]D[NMe1Nal]-NH2), the “metabolites in kidney homogenates” value in [2] is “no observable metabolites detected”. Moreover, the “metabolites in liver homogenates” value in data set [2] is reported as “no observable metabolites detected”. The molecule further yielded an SUVmax in the data set with A431-CCK2R tumors [3] of 1.86. Besides, the tissue to tissue ratio at 1 h in the data set “in vivo” came out at 19.3 ± 1.49. Also, in “in vivo” (SUVmax), the SUV at 2 h amounted to 0.32 SUV. The logD in [4] was -2.59 ± 0.02. Also, the tissue uptake at 1 h was 2.53 ± 0.17 %ID/g in data set [5] (3 mg/kg, Uptake in A431-CCK2R Tumors, 1 hr Blocked); 9.68 ± 1.02 %ID/g in data set [5] (Uptake in A431-CCK2R Tumors, 1 hr); 0.83 ± 0.07 %ID/g in [5] (Uptake in Organs: Blood); 0.4 ± 0.03 %ID/g in data set [5] (Uptake in Organs: Heart); 12.3 ± 0.63 %ID/g in data set [5] (Uptake in Organs: Kidneys); 0.44 ± 0.03 %ID/g in data set [5] (Uptake in Organs: Liver). Besides, the tissue uptake at 1 h in data set [5] (Uptake in Organs: Lungs) is 0.85 ± 0.11 %ID/g; in data set [5] (Uptake in Organs: Muscle), 0.16 ± 0.03 %ID/g; in data set [5] (Uptake in Organs: Spleen) it was 0.43 ± 0.13 %ID/g; in data set [5] (Uptake in Organs: Stomach) it was 1.81 ± 0.12 %ID/g. Also, the tissue uptake at 2.5 h in [5] (Uptake in A431-CCK2R Tumors, 2.5 hr) was 11.4 ± 0.17 %ID/g.
